Assay results: article PMC10606151, “The Functional Characteristics and Soluble Expression of Saffron CsCCD2” (International Journal of Molecular Sciences, 2023)

Tests used:
CsCCD2 (TRX-CsCCD2) [1] = target: T1, CsCCD2 (TRX-CsCCD2) (Crocus sativus, UniProt A0A075W695); assay: in vivo cleavage in β-carotene-producing E. coli, UPLC and UPLC-MS/MS of crocetin dialdehyde; type: cell-based; conditions: E. coli BL21(DE3) with pACCAR16Δcrt, 0.3 mM IPTG, 16 °C, 24 h; product named crocetin dialdehyde
T1 construct: gene CCD2; CsCCD2 in pET32a, N-terminal TrxA-6xHis-thrombin-S tag fusion, tags kept; synthetic gene with synonymous G1179T; E. coli BL21(DE3) accumulating carotenoids

CsCCD2 (TRX-CsCCD2) [2] = target: T1, CsCCD2 (TRX-CsCCD2); assay: in vivo cleavage in zeaxanthin-producing E. coli, UPLC and UPLC-MS/MS of crocetin dialdehyde; type: cell-based; conditions: E. coli BL21(DE3) with pACCAR25ΔcrtX, 0.3 mM IPTG, 16 °C, 24 h; product crocetin dialdehyde

T1 sequence (A0A075W695 entry or part of it): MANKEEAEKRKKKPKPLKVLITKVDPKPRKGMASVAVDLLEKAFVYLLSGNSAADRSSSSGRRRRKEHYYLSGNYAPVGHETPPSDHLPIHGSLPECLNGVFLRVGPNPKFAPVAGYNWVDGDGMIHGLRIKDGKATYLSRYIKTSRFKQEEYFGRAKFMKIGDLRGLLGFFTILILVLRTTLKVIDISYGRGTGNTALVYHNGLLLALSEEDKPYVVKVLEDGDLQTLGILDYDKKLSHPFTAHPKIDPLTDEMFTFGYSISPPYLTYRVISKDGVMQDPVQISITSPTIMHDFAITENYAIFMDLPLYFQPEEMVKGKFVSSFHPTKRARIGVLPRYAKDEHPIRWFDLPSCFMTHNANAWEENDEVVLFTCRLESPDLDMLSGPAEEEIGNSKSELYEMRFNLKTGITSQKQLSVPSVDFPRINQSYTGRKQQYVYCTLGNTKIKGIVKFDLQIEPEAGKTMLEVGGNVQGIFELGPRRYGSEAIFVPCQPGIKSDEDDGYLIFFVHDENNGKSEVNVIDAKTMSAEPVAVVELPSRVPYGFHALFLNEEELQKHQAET

SMILES	in vivo cleavage in β-carotene-producing E. coli, UPLC and UPLC-MS/MS of croceti (CsCCD2 (TRX-CsCCD2) [1])	in vivo cleavage in zeaxanthin-producing E. coli, UPLC and UPLC-MS/MS of croceti (CsCCD2 (TRX-CsCCD2) [2])
CC1=C(/C=C/C(C)=C/C=C/C(C)=C/C=C/C=C(C)/C=C/C=C(C)/C=C/C2=C(C)CCCC2(C)C)C(C)(C)CCC1 [β-carotene]	These results revealed that TRX-CsCCD2 cleaved zeaxanthin, β-carotene, and lycopene	–
CC1=C(/C=C/C(C)=C/C=C/C(C)=C/C=C/C=C(C)/C=C/C=C(C)/C=C/C2=C(C)C[C@@H](O)CC2(C)C)C(C)(C)C[C@H](O)C1 [zeaxanthin]	–	These results revealed that TRX-CsCCD2 cleaved zeaxanthin, β-carotene, and lycopene
